Reference: patent publication US9440980B2, “Remedy for diabetes” (EA Pharma Co., Ltd., priority 2007, dated 2016)

Legend:
isolated adipocytes = assay: Measurement of glucose uptake activity in isolated rat adipocytes (2-[14C]-deoxy-D-glucose); format: cell-based; conditions: Adipocyte, glucose uptake of insulin (100 nM) = 100%
Procedure: A male Wistar rat was decapitated and exsanguinated, and then a paratesticular adipose tissue was resected therefrom after laparotomy. The tissue was cut in a KRH (Krebs-Ringer HEPES: 130 mM NaCl, 4.7 mM KCl, 1.2 mM KH2PO4, 1.2 mM MgSO4, 1 mM CaCl2, 25 mM HEPES) containing a BSA (bovine serum albumin), a collagenase (type I) was added thereto, and the resultant was subjected to a digestive treatment for about 40 minutes to obtain isolated adipocytes. The buffer was replaced to remove the collagenase, and a 2% BSA/KRH solution was added thereto, whereby the adipocytes were floated again to obtain a adipocytes suspension.
The glucose uptake activity of a test substance compound was evaluated in accordance with Non-Patent Document 14: Simpson et al., Annual Review of Biochemistry, 55, 1059, (1986). Thus, 200 μl of the adipocytes suspension was dispensed into each polystyrene test tube, 100 μl of a solution containing the test substance compound was added thereto, and the test tube was shaken and incubated at 37° C. for 30 minutes. The glucose uptake activity was evaluated by measuring the amount of 2-[^14C(U)]-deoxy-D-glucose uptaken per unit time. Thus, the 2-[^14C(U)]-deoxy-D-glucose was added to the preincubated adipocytes suspension at the final concentration of 0.5 μCi/sample, and after 5 minutes, cytochalasin B was added thereto at the final concentration of 10 μM to stop the glucose uptake. Dinonyl phthalate was superposed over the solution, the resultant was centrifuged to separate the fat cells from the buffer, and the amount of the 2-[^14C(U)]-deoxy-D-glucose contained in the fat cell layer was measured by a liquid scintillation counter, whereby the uptaken glucose amount was determined. The glucose uptake of insulin (100 nM) was evaluated in the same manner and considered to be 100%, and thus the EC50 value of each compound was obtained.

HLF cell membrane = assay: Binding assay of 3H-labeled Compound 1 using HLF cell membrane; design: species or system human; conditions: 3H-labeled Compound 1, calculated by Scatchard plot
Procedure: A cell membrane of a human liver-derived HLF cell was prepared as follows. HLF cells were approximately confluently cultured in a Dulbecco MEM medium containing 10% FCS in a cell culture dish having a diameter of 15 cm. The HLF cells cultured in 30 dishes were scraped by a cell scraper in the presence of an HMEE buffer (20 mM HEPES-KOH, 1 mM EDTA, 1 mM EGTA, and 2 mM MgCl2) to obtain about 30 ml of a cell suspension. The suspension was homogenized using a TEFLON (registered trademark) homogenizer (ice temperature, 1000 rpm, 15 stroke) and centrifuged at a low rate (1500 rpm, 5 minutes). […]
The binding assay of the ^3H-labeled Compound 1 on thus obtained cell membrane was carried out as follows. […] The filter plate was well washed with a TBS (20 mM Tris-HCl, 0.15 M NaCl, pH 7.4) containing 0.05% Twee-20 and sufficiently dried, 30 μl of a liquid scintillator (Microscinti 0, Packard) was added to the filter plate, and the ^3H count was measured by Topcount (Packard). […]
The inhibitory activity of each of the probe molecule compounds synthesized in Examples 2 and 7 to 10 against the binding of the ^3H-labeled Compound 1 to the HLF cell membrane was measured by the method described in Example 14 to confirm whether the probe compound could be bound to the binding protein like Compound 1. […]

[1] = test system: PI3-kinase α (p110α/p85α); assay: PI3-kinase subtype activity in the presence of Gβ1γ2-Myc (PIP3 production, 32P-ATP, TLC); format: biochemical; conditions: 30 μM, FIG. 13
Procedure: The subtypes α (PI3 Kinase (p110α/p85α), active, Upstate, Product No. 14-602), β (PI3 Kinase (p110β/p85α), active, Upstate, Product No. 14-603), γ ((PI3KγHis-GST (Phosphoinositide 3-kinase p110γHis/p101GST) human, Recombinant, Sf9 insect cell, JENA Bioscience, Product No. PR-347S), and δ (PI3 Kinase (p110δ/p85α), active, Upstate, Product No. 14-604) were used as the PI3-kinase subtypes respectively. A PI3K buffer (40 mM HEPES-Na (pH 7.4), 120 mM NaCl, 1 mM EGTA, 1 mM dithiothreitol, 1 mM β glycerophosphoric acid, 10 mM MgCl2, 0.1% BSA) was used as a buffer in the following reactions.
A mixture liquid of phosphatidylethanolamine (0.256 μmol), phosphatidylserine (0.24 μmol), phosphatidylcholine (0.112 μmol), sphingomyelin (0.024 μmol), and phosphatidylinositol-[4,5]-bisphosphate (0.032 μmol) was added to a glass tube and dried by argon gas, and to this was added the PI3K buffer (0.27 ml) at ice temperature. This solution was ultrasonic-treated in ice to prepare a lipid micelle solution. […] The data were analyzed by a software of BAS2000, the analysis region was controlled such that spots of phosphatidylinositol-[3,4,5]-trisphosphate (PIP3) in the TLC lanes have the same areas, and the energy (PSL) corresponding to each radioactivity was quantified in the region.

EC50 (isolated adipocytes)	effect on PI3-kinase α activity [1]	SMILES	Kd (HLF cell membrane)
4000 nM	–	O=C1NCC2=C1[C@@H](c1ccccc1)N(C(=O)CO)[C@@H]1CCCC[C@H]1N2 [Compound 6]	–
8 nM	only on the PI3-kinase β	O=C1NCC2=C1[C@@H](c1cccc3ccsc13)N(C(=O)CCc1ccccn1)[C@@H]1CCCC[C@H]1N2 [Compound 1]	930 nM
